Tested on: KRAS G12V dependent lung adenocarcinoma cell line, NCI-H441
Experiment: Cellular pERK (Thr202/Tyr204) FRET/HTRF assay
Type: cell-based
Conditions: Homo sapiens, NCI-H441, pERK HTRF, NCI-H441 cells (KRAS G12V)
Outline: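 Phospho-ERK1/2 (Thr202/Tyr204) quantified by two-antibody HTRF in lysed NCI-H441 cells. Cells seeded overnight, treated with test compounds for 1 hr at 37 °C against DMSO control, then lysed and detected at room temperature; IC50 obtained by curve fitting.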

SMILES | IC50
[2H]C([2H])(Oc1nc(N2CCCC[C@H]3[C@H](F)[C@H]32)c2cnc(-c3cc(N)cc4cc(F)c(F)c(C#C)c34)c(F)c2n1)[C@@]12CCCN1C[C@H](F)C2 [Example 16, 5-Ethynyl-6,7-difluoro-4-(8-fluoro-4-((1S,7R,8S)-8-fluoro-2-azabicyclo[5.1.0]octan-2-yl)-2-(((2R,7aS)-2-fluorotetrahydro-1H-pyrrolizin-7a(5H)-yl)methoxy-d2)pyrido[4,3-d]pyrimidin-7-yl)naphthalen-2-amine] | < 50 nM
[2H]C([2H])(Oc1nc(N2CCOC[C@H]3[C@H](F)[C@H]32)c2cnc(-c3cc(N)cc4cc(F)c(F)c(C#C)c34)c(F)c2n1)[C@@]12CCCN1C[C@H](F)C2 [Example 28, 5-Ethynyl-6,7-difluoro-4-(8-fluoro-4-((1S,7S,8S)-8-fluoro-5-oxa-2-azabicyclo[5.1.0]octan-2-yl)-2-(((2R,7aS)-2-fluorotetrahydro-1H-pyrrolizin-7a(5H)-yl)methoxy-d2)pyrido[4,3-d]pyrimidin-7-yl)naphthalen-2-amine] | < 50 nM
[2H]C([2H])(Oc1nc(N2CCCC[C@H]3[C@H](F)[C@H]32)c2cnc(-c3cc(N)cc4ccc(F)c(C#C)c34)c(F)c2n1)[C@@]12CCCN1C[C@H](F)C2 [Example 82, 5-Ethynyl-6-fluoro-4-(8-fluoro-4-((1S,7R,8S)-8-fluoro-2-azabicyclo[5.1.0]octan-2-yl)-2-(((2R,7aS)-2-fluorotetrahydro-1H-pyrrolizin-7a(5H)-yl)methoxy-d2)pyrido[4,3-d]pyrimidin-7-yl)naphthalen-2-amine] | < 50 nM
[2H]C([2H])(Oc1nc(N2CCOC[C@H]3[C@H](F)[C@H]32)c2cnc(-c3cc(N)cc4ccc(F)c(C#C)c34)c(F)c2n1)[C@@]12CCCN1C[C@H](F)C2 [Example 87, 5-Ethynyl-6-fluoro-4-(8-fluoro-4-((1S,7S,8S)-8-fluoro-5-oxa-2-azabicyclo[5.1.0]octan-2-yl)-2-(((2R,7aS)-2-fluorotetrahydro-1H-pyrrolizin-7a(5H)-yl)methoxy-d2)pyrido[4,3-d]pyrimidin-7-yl)naphthalen-2-amine] | < 50 nM

— patent US20250282799A1, “SUBSTITUTED PYRIDO[4,3-d]PYRIMIDINES AS KRAS MODULATORS” (Alterome Therapeutics, Inc., priority 2023, published 2025)
